Results from patent publication US11178873B2, “Cyclic N-carboxamide compounds useful as herbicides” (FMC CORPORATION, priority 2015, dated 2021).

Legend:
Format in all cases: in vivo
[1] = system: ragweed (common ragweed, Ambrosia elatior); experiment: Test A preemergence, ragweed; details: 0 to 100 scale, 0 no effect, 100 complete control
Description: (§1) Seeds of plant species selected from barnyardgrass (Echinochloa crus-galli), crabgrass, large (large crabgrass, Digitaria sanguinalis), kochia (Kochia scoparia), ragweed (common ragweed, Ambrosia elatior), morningglory (Ipomoea spp.), velvetleaf (Abutilon theophrasti), ryegrass, Italian (Italian ryegrass, Lolium multiflorum), foxtail, giant (giant foxtail, Setaria faberii), wheat (Triticum aestivum), corn (Zea mays), and pigweed (Amaranthus retroflexus), were planted into a blend of loam soil and sand and treated preemergence with a directed soil spray using test chemicals formulated in a non-phytotoxic solvent mixture which included a surfactant. At the same time, plants selected from these crop and weed species and also blackgrass (Alopecurus myosuroides), and galium (catchweed bedstraw, Galium aparine), were planted in pots containing the same blend of loam soil and sand and treated with postemergence applications of test chemicals formulated in the same manner. Plants ranged in height from 2 to 10 cm and were in the one- to two-leaf stage for the postemergence treatment. Treated plants and untreated controls were maintained in a greenhouse for approximately 10 d, after which time all treated plants were compared to untreated controls and visually evaluated for injury. Plant response ratings, summarized in Table A, are based on a 0 to 100 scale where 0 is no effect and 100 is complete control. A dash (-) response means no test result.

[2] = system: ragweed (common ragweed, Ambrosia elatior); experiment: Test A postemergence, ragweed; details: 0 to 100 scale, 0 no effect, 100 complete control
Description: as §1

[3] = system: pigweed (Amaranthus retroflexus); experiment: Test A preemergence, pigweed; details: 0 to 100 scale, 0 no effect, 100 complete control
Description: as §1

corn (Zea mays) = experiment: Test A postemergence, corn; details: 0 to 100 scale, 0 no effect, 100 complete control
Description: as §1

[4] = system: ducksalad (Heteranthera limosa); experiment: Test B flooded paddy test, ducksalad; details: Flood, scale 0 to 100 (0 no effect, 100 complete control), 13 to 15 d
Procedure: (§2) Plant species in the flooded paddy test selected from rice (Oryza sativa), sedge, umbrella (small-flower umbrella sedge, Cyperus difformis), ducksalad (Heteranthera limosa), and barnyardgrass (Echinochloa crus-galli) were grown to the 2-leaf stage for testing. At time of treatment, test pots were flooded to 3 cm above the soil surface, treated by application of test compounds directly to the paddy water, and then maintained at that water depth for the duration of the test. Treated plants and controls were maintained in a greenhouse for 13 to 15 d, after which time all species were compared to controls and visually evaluated. Plant response ratings, summarized in Table B, are based on a scale of 0 to 100 where 0 is no effect and 100 is complete control. A dash (-) response means no test result.

[5] = system: foxtail, giant (giant foxtail, Setaria faberii); experiment: Test A postemergence, foxtail, giant; details: 0 to 100 scale, 0 no effect, 100 complete control
Description: as §1

kochia (Kochia scoparia) [6] = experiment: Test A postemergence, kochia; details: 0 to 100 scale, 0 no effect, 100 complete control
Description: as §1

[7] = system: ryegrass, Italian (Italian ryegrass, Lolium multiflorum); experiment: Test A preemergence, ryegrass, Italian; details: 0 to 100 scale, 0 no effect, 100 complete control
Description: as §1

[8] = system: barnyardgrass (Echinochloa crus-galli); experiment: Test A preemergence, barnyardgrass; details: 0 to 100 scale, 0 no effect, 100 complete control
Description: as §1

[9] = system: galium (catchweed bedstraw, Galium aparine); experiment: Test A postemergence, galium; details: 0 to 100 scale, 0 no effect, 100 complete control
Description: as §1

[10] = system: sedge, umbrella (small-flower umbrella sedge, Cyperus difformis); experiment: Test B flooded paddy test, sedge, umbrella; details: Flood, scale 0 to 100 (0 no effect, 100 complete control), 13 to 15 d
Procedure: as §2

rice (Oryza sativa) = experiment: Test B flooded paddy test, rice; details: Flood, scale 0 to 100 (0 no effect, 100 complete control), 13 to 15 d
Procedure: as §2

[11] = system: blackgrass (Alopecurus myosuroides); experiment: Test A postemergence, blackgrass; details: 0 to 100 scale, 0 no effect, 100 complete control
Description: as §1

[12] = system: wheat (Triticum aestivum); experiment: Test A postemergence, wheat; details: 0 to 100 scale, 0 no effect, 100 complete control
Description: as §1

[13] = system: pigweed (Amaranthus retroflexus); experiment: Test A postemergence, pigweed; details: 0 to 100 scale, 0 no effect, 100 complete control
Description: as §1

[14] = system: barnyardgrass (Echinochloa crus-galli); experiment: Test A postemergence, barnyardgrass; details: 0 to 100 scale, 0 no effect, 100 complete control
Description: as §1

[15] = system: barnyardgrass (Echinochloa crus-galli); experiment: Test B flooded paddy test, barnyardgrass; details: Flood, scale 0 to 100 (0 no effect, 100 complete control), 13 to 15 d
Procedure: as §2

[16] = system: foxtail, giant (giant foxtail, Setaria faberii); experiment: Test A preemergence, foxtail, giant; details: 0 to 100 scale, 0 no effect, 100 complete control
Description: as §1

kochia (Kochia scoparia) [17] = experiment: Test A preemergence, kochia; details: 0 to 100 scale, 0 no effect, 100 complete control
Description: as §1

[18] = system: ryegrass, Italian (Italian ryegrass, Lolium multiflorum); experiment: Test A postemergence, ryegrass, Italian; details: 0 to 100 scale, 0 no effect, 100 complete control
Description: as §1

| Structure (SMILES) | Plant response rating, Ragweed ([1]; 125 g ai/ha) | Plant response rating, Ragweed ([1]; 500 g ai/ha) | Plant response rating, Ragweed ([2]; 125 g ai/ha) | Plant response rating, Ragweed ([2]; 500 g ai/ha) | Plant response rating, Pigweed ([3]; 125 g ai/ha) | Plant response rating, Pigweed ([3]; 500 g ai/ha) | Plant response rating, Corn (corn (Zea mays); 125 g ai/ha) | Plant response rating, Corn (corn (Zea mays); 500 g ai/ha) | Plant response rating, Foxtail, Giant ([5]; 125 g ai/ha) | Plant response rating, Foxtail, Giant ([5]; 500 g ai/ha) | Plant response rating, Kochia (kochia (Kochia scoparia) [6]; 125 g ai/ha) | Plant response rating, Kochia (kochia (Kochia scoparia) [6]; 500 g ai/ha) | Plant response rating, Ryegrass, Italian ([7]; 125 g ai/ha) | Plant response rating, Ryegrass, Italian ([7]; 500 g ai/ha) | Plant response rating, Barnyardgrass ([8]; 125 g ai/ha) | Plant response rating, Barnyardgrass ([8]; 500 g ai/ha) | Plant response rating, Galium ([9]; 125 g ai/ha) | Plant response rating, Galium ([9]; 500 g ai/ha) | Plant response rating, Blackgrass ([11]; 125 g ai/ha) | Plant response rating, Blackgrass ([11]; 500 g ai/ha) | further results |
| --- | --- | --- | --- | --- | --- | --- | --- | --- | --- | --- | --- | --- | --- | --- | --- | --- | --- | --- | --- | --- | --- |
| O=C1NCC(c2ccccc2)N1C(=O)Nc1ccccc1F (stereo not drawn) [Compound 5] | 0 | 0 | 0 | 0 | 0 | 0 | 0 | 0 | 0 | 0 | 0 | 0 | 0 | 0 | 0 | 0 | 0 | 0 | 0 | 0 | Plant response rating, Ducksalad ([4]; 1000 g ai/ha): 90; Plant response rating, Sedge, Umbrella ([10]; 1000 g ai/ha): 0; Plant response rating, Rice (rice (Oryza sativa); 1000 g ai/ha): 0; Plant response rating, Wheat ([12]; 125 g ai/ha): 0; Plant response rating, Wheat ([12]; 500 g ai/ha): 0; Plant response rating, Pigweed ([13]; 125 g ai/ha): 0; Plant response rating, Pigweed ([13]; 500 g ai/ha): 0; Plant response rating, Barnyardgrass ([14]; 125 g ai/ha): 0; Plant response rating, Barnyardgrass ([14]; 500 g ai/ha): 0; Plant response rating, Barnyardgrass ([15]; 1000 g ai/ha): 0; Plant response rating, Foxtail, Giant ([16]; 125 g ai/ha): 0; Plant response rating, Foxtail, Giant ([16]; 500 g ai/ha): 0; Plant response rating, Kochia (kochia (Kochia scoparia) [17]; 125 g ai/ha): 0; Plant response rating, Kochia (kochia (Kochia scoparia) [17]; 500 g ai/ha): 0; Plant response rating, Ryegrass, Italian ([18]; 125 g ai/ha): 0; Plant response rating, Ryegrass, Italian ([18]; 500 g ai/ha): 0 |
| O=C1NCC(c2ccc(F)c(F)c2)N1C(=O)Nc1ccccc1 (stereo not drawn) [Compound 7] | 0 | 0 | 0 | 0 | 0 | 0 | 0 | 0 | 0 | 0 | 0 | 0 | 0 | 0 | 0 | 0 | 0 | 0 | 0 | 0 | Plant response rating, Ducksalad ([4]; 1000 g ai/ha): 0; Plant response rating, Sedge, Umbrella ([10]; 1000 g ai/ha): 0; Plant response rating, Rice (rice (Oryza sativa); 1000 g ai/ha): 0; Plant response rating, Wheat ([12]; 125 g ai/ha): 0; Plant response rating, Wheat ([12]; 500 g ai/ha): 0; Plant response rating, Pigweed ([13]; 125 g ai/ha): 0; Plant response rating, Pigweed ([13]; 500 g ai/ha): 0; Plant response rating, Barnyardgrass ([14]; 125 g ai/ha): 0; Plant response rating, Barnyardgrass ([14]; 500 g ai/ha): 0; Plant response rating, Barnyardgrass ([15]; 1000 g ai/ha): 0; Plant response rating, Foxtail, Giant ([16]; 125 g ai/ha): 0; Plant response rating, Foxtail, Giant ([16]; 500 g ai/ha): 0; Plant response rating, Kochia (kochia (Kochia scoparia) [17]; 125 g ai/ha): 0; Plant response rating, Kochia (kochia (Kochia scoparia) [17]; 500 g ai/ha): 0; Plant response rating, Ryegrass, Italian ([18]; 125 g ai/ha): 0; Plant response rating, Ryegrass, Italian ([18]; 500 g ai/ha): 0 |
| O=C1NCC(c2ccc(F)c(F)c2)N1C(=O)Nc1ccccc1F (stereo not drawn) [Compound 8] | 0 | 0 | 0 | 0 | 0 | 0 | 0 | 0 | 0 | 0 | 0 | 0 | 0 | 0 | 0 | 0 | 0 | 0 | 0 | 0 | Plant response rating, Ducksalad ([4]; 500 g ai/ha): 40; Plant response rating, Sedge, Umbrella ([10]; 500 g ai/ha): 0; Plant response rating, Rice (rice (Oryza sativa); 500 g ai/ha): 0; Plant response rating, Wheat ([12]; 125 g ai/ha): 0; Plant response rating, Wheat ([12]; 500 g ai/ha): 0; Plant response rating, Pigweed ([13]; 125 g ai/ha): 0; Plant response rating, Pigweed ([13]; 500 g ai/ha): 0; Plant response rating, Barnyardgrass ([14]; 125 g ai/ha): 0; Plant response rating, Barnyardgrass ([14]; 500 g ai/ha): 0; Plant response rating, Barnyardgrass ([15]; 500 g ai/ha): 0; Plant response rating, Foxtail, Giant ([16]; 125 g ai/ha): 0; Plant response rating, Foxtail, Giant ([16]; 500 g ai/ha): 0; Plant response rating, Kochia (kochia (Kochia scoparia) [17]; 125 g ai/ha): 0; Plant response rating, Kochia (kochia (Kochia scoparia) [17]; 500 g ai/ha): 0; Plant response rating, Ryegrass, Italian ([18]; 125 g ai/ha): 0; Plant response rating, Ryegrass, Italian ([18]; 500 g ai/ha): 0 |
